Test results reported in patent publication US11655246B2, “Aminothiazole compounds as inhibitors of CTPS1” (STEP PHARMA S.A.S., priority 2017, dated 2023).
Where two headings read alike, the source gives them in different places.

Biological target: T1, human CTPS1 (Homo sapiens, UniProt P17812)
T1 construct: purchased Proteros biostructures GmbH
T1 sequence (P17812 1-591): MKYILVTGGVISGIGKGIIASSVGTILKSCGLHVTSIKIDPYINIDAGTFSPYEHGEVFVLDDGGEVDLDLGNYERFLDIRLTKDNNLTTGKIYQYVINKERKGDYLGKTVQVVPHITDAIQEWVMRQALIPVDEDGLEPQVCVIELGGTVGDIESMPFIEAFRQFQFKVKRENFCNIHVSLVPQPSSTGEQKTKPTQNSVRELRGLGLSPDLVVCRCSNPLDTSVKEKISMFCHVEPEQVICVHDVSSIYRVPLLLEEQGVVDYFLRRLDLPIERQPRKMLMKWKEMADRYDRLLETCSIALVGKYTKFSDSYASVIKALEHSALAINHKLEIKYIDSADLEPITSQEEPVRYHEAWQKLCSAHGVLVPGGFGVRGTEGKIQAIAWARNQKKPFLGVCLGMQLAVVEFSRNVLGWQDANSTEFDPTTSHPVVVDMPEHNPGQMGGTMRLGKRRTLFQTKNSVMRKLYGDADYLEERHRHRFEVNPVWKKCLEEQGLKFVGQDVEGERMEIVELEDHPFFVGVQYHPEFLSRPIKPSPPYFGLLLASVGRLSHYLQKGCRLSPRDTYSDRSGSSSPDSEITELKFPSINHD
Test: Human CTPS1 enzyme inhibition (ADP-Glo Max assay)
Type: biochemical
Details: read-out: CTPS1 (Human CTPS1 Enzyme Inhibition data grouped by potency range)
Method: The enzyme inhibitory activities of compounds invented against the target of interest were determined using the ADP-Glo™ Max assay (Promega, UK). Assays for human CTPS1 were performed in 1× assay buffer containing 50 mM Tris, 10 mM MgCl2, 0.01% Tween-20, pH to 8.0 accordingly. Finally, immediately before use, L-cysteine was added to the 1× assay buffer to a final concentration of 2 mM. All reagents are from Sigma-Aldrich unless specified otherwise.
3× human CTPS1 protein was prepared in 1× assay buffer to the final working protein concentration required for the reaction. A 2 uL volume per well of 3× human CTPS1 protein was mixed with 2 uL per well of 3× test compound (compound prepared in 1× assay buffer to an appropriate final 3× compound concentration respective to the concentration response curve designed for the compounds under test) for 10 minutes at 25° C. […] ADP-Glo™ Max reagent was added for 60 minutes (6 uL per well) and subsequently ADP-Glo™ Max development reagent was added for 60 minutes (12 uL per well) prior to signal detection in a microplate reader (EnVision® Multilabel Reader, Perkin Elmer). Following each reagent addition over the course of the assay, assay plates were pulse centrifuged for 30 seconds at 500 rpm.
In all cases, the enzyme converts ATP to ADP and the ADP-Glo™ Max reagent subsequently depletes any remaining endogenous ATP in the reaction system. The ADP-Glo™ Max detection reagent converts the ADP that has been enzymatically produced back into ATP and using ATP as a substrate together with luciferin for the enzyme luciferase, light is generated which produces a detectable luminescence. […] The percentage inhibition produced by each concentration of compound was calculated using the equation shown below: […]

[1] = Table 18, additional potency data, 25° C.

| Structure (SMILES) | IC50 [1] [nM] | IC50 (Table 17, 25° C.) [nM] |
| --- | --- | --- |
| CC(C)c1cc(-c2cncc(C(F)(F)F)n2)ccc1NC(=O)C(C)(C)c1csc(NS(=O)(=O)C2CC2)n1 [T361, 2-(2-(cyclopropanesulfonamido)thiazol-4-yl)-N-(2-isopropyl-4-(6-(trifluoromethyl)pyrazin-2-yl)phenyl)-2-methylpropanamide] | 100 to 1000 |  |
| CCC(C(=O)Nc1ccc(-c2cncc(Cl)c2)cc1)c1csc(NS(=O)(=O)C2CC2)n1 (racemic) [T8, N-(4-(5-chloropyridin-3-yl)phenyl)-2-(2-(cyclopropanesulfonamido)thiazol-4-yl)butanamide] |  | < 100 |
| CCC(CC)(C(=O)Nc1ccc(-c2cnccn2)cn1)c1csc(NS(=O)(=O)C2CC2)n1 [T3, 2-(2-(cyclopropanesulfonamido)thiazol-4-yl)-2-ethyl-N-(5-(pyrazin-2-yl)pyridin-2-yl)butanamide] |  | 100 to 1000 |
| Cc1sc(NS(=O)(=O)C2CC2)nc1C(C)(C)C(=O)Nc1ccc(-c2cncc(C#N)c2)cc1 [T374, N-(4-(5-cyanopyridin-3-yl)phenyl)-2-(2-(cyclopropanesulfonamido)-5-methylthiazol-4-yl)-2-methylpropanamide] | 1000 to 10000 |  |
| CCOc1cncc(-c2cnc(NC(=O)C(CC)c3csc(NS(=O)(=O)C4CC4)n3)c(C)c2)n1 (stereo not shown) [T438] | < 100 |  |
| CCC(C(=O)Nc1ccc(-c2cncc(C(C)(C)OC)n2)cn1)c1csc(NS(=O)(=O)C2CC2)n1 (stereo not shown) [T402, 2-(2-(cyclopropanesulfonamido)thiazol-4-yl)-N-(5-(6-(2-methoxypropan-2-yl)pyrazin-2-yl)pyridin-2-yl)butanamide] | 1000 to 10000 |  |
| Cc1sc(NS(=O)(=O)C2CC2)nc1C(C)(C)C(=O)Nc1ccc(-c2cncc(C(F)(F)F)c2)cc1F [T350, 2-(2-(cyclopropanesulfonamido)-5-methylthiazol-4-yl)-N-(2-fluoro-4-(5-(trifluoromethyl)pyridin-3-yl)phenyl)-2-methylpropanamide] | 100 to 1000 |  |
| CCOc1cncc(-c2cnc(NC(=O)C(OC)c3csc(NS(=O)(=O)C4CC4)n3)c(F)c2)n1 (stereo not shown) [T445] | < 100 |  |
| CCOc1cncc(-c2ccc(NC(=O)C(C)(C)c3csc(NS(=O)(=O)C4CC4)n3)c(C(F)(F)F)c2)n1 [T347, 2-(2-(cyclopropanesulfonamido)thiazol-4-yl)-N-(4-(6-ethoxypyrazin-2-yl)-2-(trifluoromethyl)phenyl)-2-methylpropanamide] | < 100 |  |
| CCOc1cncc(-c2ccc(NC(=O)C(C)(C)c3nc(NS(=O)(=O)C4CC4)sc3OC)cc2)n1 [T377, 2-(2-(cyclopropanesulfonamido)-5-methoxythiazol-4-yl)-N-(4-(6-ethoxypyrazin-2-yl)phenyl)-2-methylpropanamide] | 100 to 1000 |  |
| COC(C(=O)Nc1ccc(-c2cncc(C(F)(F)F)n2)cc1F)c1csc(NS(=O)(=O)C2CC2)n1 (single isomer, unassigned) [T459] | < 100 |  |
| CCOc1cncc(-c2ccc(NC(=O)C(OC)c3csc(NS(=O)(=O)C4CC4)n3)nc2)n1 (stereo not shown) [T446] | < 100 |  |
| O=C(Cc1csc(NS(=O)(=O)C2CC2)n1)Nc1ccc(-c2cccnc2)cc1Cl [T16, N-(2-chloro-4-(pyridin-3-yl)phenyl)-2-(2-(cyclopropanesulfonamido)thiazol-4-yl)acetamide] |  | 100 to 1000 |
| COc1cncc(-c2ccc(N3CCC(c4csc(NS(=O)(=O)C5CC5)n4)C3=O)cc2)c1 (stereo not shown) [T463] | 100 to 1000 |  |
| Cc1c(NC(=O)C(C)(C)c2csc(NS(=O)(=O)C3CC3)n2)ccc(-c2cncc(C#N)c2)c1F [T367, N-(4-(5-cyanopyridin-3-yl)-3-fluoro-2-methylphenyl)-2-(2-(cyclopropanesulfonamido)thiazol-4-yl)-2-methylpropanamide] | < 100 |  |
| CCOc1cncc(-c2ccc(NC(=O)C(OC)c3csc(NS(=O)(=O)C4CC4)n3)cc2)n1 (single isomer, unassigned) [T331, 2-(2-(cyclopropanesulfonamido)thiazol-4-yl)-N-(4-(6-ethoxypyrazin-2-yl)phenyl)-2-methoxyacetamide] | < 100 |  |
| CCC(C(=O)Nc1ccc(-c2cncc(OC)n2)cc1F)c1csc(NS(=O)(=O)C2CC2)n1 (stereo not shown) [T208] |  | < 100 |
| COc1cncc(-c2ccc(NC(=O)C(OC)c3csc(NS(=O)(=O)C4CC4)n3)cc2)n1 (single isomer, unassigned) [T107] |  | < 100 |
| CCC(CC)(C(=O)Nc1ccc(-c2cncc(Cl)n2)cc1)c1csc(NS(=O)(=O)C2CC2)n1 [T160] |  | < 100 |
| Cc1ncc(-c2ccc(NC(=O)C(C)(C)c3csc(NS(=O)(=O)C4CC4)n3)cc2)nc1Cl [T277] |  | 100 to 1000 |

| Structure (SMILES) | IC50 [1] [nM] | IC50 (Table 17, 25° C.) [nM] |
| --- | --- | --- |
| CCC(C(=O)Nc1ccc(-c2cncc(OC(C)C)n2)cn1)c1csc(NS(=O)(=O)C2CC2)n1 (stereo not shown) [T174] |  | < 100 |
| Cc1cc(-c2cncc(C(F)(F)F)n2)ccc1NC(=O)C(C)(C)c1csc(NS(=O)(=O)C2CC2)n1 [T368, 2-(2-(cyclopropanesulfonamido)thiazol-4-yl)-2-methyl-N-(2-methyl-4-(6-(trifluoromethyl)pyrazin-2-yl)phenyl)propanamide] | < 100 |  |
| O=C(Nc1ccc(-c2cccnc2)cc1)C1CCc2sc(NS(=O)(=O)C3CC3)nc21 (stereo not shown) [T213] |  | 100 to 1000 |
| CCOc1cncc(-c2ccc(NC(=O)C(CCOC)c3csc(NS(=O)(=O)C4CC4)n3)nc2)n1 (stereo not shown) [T436] | < 100 |  |
| Cc1cc(-c2cncc(Cl)c2)c(C)cc1NC(=O)C(C)(C)c1csc(NS(=O)(=O)C2CC2)n1 [T366, N-(4-(5-chloropyridin-3-yl)-2,5-dimethylphenyl)-2-(2-(cyclopropanesulfonamido)thiazol-4-yl)-2-methylpropanamide] | 100 to 1000 |  |
| CCC(C(=O)Nc1ccc(-c2cnccn2)cc1F)c1csc(NS(=O)(=O)C2CC2)n1 (stereo not shown) [T196] |  | < 100 |
| CCOc1cncc(-c2ccc(NC(=O)C(C)(C)c3csc(NS(=O)(=O)CC4CC4)n3)c(F)c2)n1 [T433] | < 100 |  |
| CCOc1cncc(-c2ccc(NC(=O)C(CC)c3csc(NS(=O)(=O)C4CC4)n3)c(F)c2)c1 (stereo not shown) [T199] |  | < 100 |
| CC(C)(C(=O)Nc1ccc(-c2cncc(C(F)(F)F)c2)cn1)c1csc(NS(C)(=O)=O)n1 [T389, 2-methyl-2-(2-(methylsulfonamido)thiazol-4-yl)-N-(5′-(trifluoromethyl)-[3,3′-bipyridin]-6-yl)propanamide] | 100 to 1000 |  |
| CC(C)(C(=O)Nc1ccc(-c2cccc(C#N)c2)cc1)c1csc(NS(=O)(=O)C2CC2)n1 [T88] |  | 100 to 1000 |
| CS(=O)(=O)Nc1nc(CC(=O)Nc2ccc(-c3ccccc3)cc2)cs1 [T1, N-([1,1′-biphenyl]-4-yl)-2-(2-(methylsulfonamido)thiazol-4-yl)acetamide] |  | 1000 to 10000 |
| COC(C(=O)Nc1ccc(-c2cccnc2)cc1F)c1csc(NS(=O)(=O)C2CC2)n1 (stereo not shown) [T220] |  | < 100 |
| O=C(Nc1ccc(-c2ccccc2)cc1)C1CCCc2sc(NS(=O)(=O)C3CC3)nc21 (stereo not shown) [T83] |  | 1000 to 10000 |
| COC(C(=O)Nc1ccc(-c2cncc(OC(C)C)n2)cc1)c1csc(NS(=O)(=O)C2CC2)n1 (stereo not shown) [T411, 2-(2-(cyclopropanesulfonamido)thiazol-4-yl)-N-(4-(6-isopropoxypyrazin-2-yl)phenyl)-2-methoxyacetamide] | < 100 |  |
| CCC(C(=O)Nc1ccc(-c2cncc(C#N)n2)cn1)c1csc(NS(=O)(=O)C2CC2)n1 (stereo not shown) [T178] |  | 1000 to 10000 |
| CCOc1cncc(-c2ccc(NC(=O)C(C)c3csc(NS(=O)(=O)C4CC4)n3)cc2)n1 (stereo not shown) [T192] |  | < 100 |
| CCOc1cncc(-c2ccc(NC(=O)C(C)(C)c3csc(NS(=O)(=O)C4CC4)n3)nc2)n1 [T341, 2-(2-(cyclopropanesulfonamido)thiazol-4-yl)-N-(5-(6-ethoxypyrazin-2-yl)pyridin-2-yl)-2-methylpropanamide] | < 100 |  |
| CC(C)(C(=O)Nc1ccc(-c2cncnc2)cc1)c1csc(NS(=O)(=O)C2CC2)n1 [T18, 2-(2-(cyclopropanesulfonamido)thiazol-4-yl)-2-methyl-N-(4-(pyrimidin-5-yl)phenyl)propanamide] |  | < 100 |
| COC(C(=O)Nc1ccc(-c2cncc(C(F)(F)F)n2)cn1)c1csc(NS(=O)(=O)C2CC2)n1 (stereo not shown) [T214] |  | < 100 |
| CC(C)C(C(=O)Nc1ccc(-c2ccccc2)cc1)c1csc(NS(=O)(=O)C2CC2)n1 (stereo not shown) [T86] |  | 1000 to 10000 |
